# In ChEMBL document CHEMBL1201862, “PubChem BioAssay data set” (2004):
# Active and inactive are the calls of the source.
# Experiments:
# [1] = biological target: Luciferin 4-monooxygenase (Photinus pyralis, UniProt P08659); test: Counter Screen for Luciferase-based Assay Positives. [Related pubchem assays: 620, 618, 411 ]
# [2] = biological target: T1, Oxysterols receptor LXR-beta (Homo sapiens, UniProt P55055); type: functional, cell-based;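 also: agonist activity at LXR measured by a cell-based luminescence readout across a dose range, run as a counterscreen for daf-12 agonists; potency for activation of Gal4-LXR reporter so compounds are agonists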
# T1 sequence (P55055 whole entry): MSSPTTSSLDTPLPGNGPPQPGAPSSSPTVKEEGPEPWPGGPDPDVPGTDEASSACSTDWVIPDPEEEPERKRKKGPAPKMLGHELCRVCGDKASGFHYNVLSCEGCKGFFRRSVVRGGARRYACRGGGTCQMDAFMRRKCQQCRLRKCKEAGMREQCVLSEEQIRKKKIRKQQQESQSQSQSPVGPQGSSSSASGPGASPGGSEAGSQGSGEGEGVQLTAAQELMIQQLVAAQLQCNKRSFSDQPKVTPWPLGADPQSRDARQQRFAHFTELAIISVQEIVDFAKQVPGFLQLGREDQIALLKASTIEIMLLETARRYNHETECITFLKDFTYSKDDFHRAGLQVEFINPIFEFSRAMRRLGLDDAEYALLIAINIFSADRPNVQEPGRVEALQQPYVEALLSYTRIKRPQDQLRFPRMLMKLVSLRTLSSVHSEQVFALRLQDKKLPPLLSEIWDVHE
# [3] = Luminescence-based cell-based high throughput dose response assay to identify activators of the DAF-12 from the parasite S. stercoralis (ssDAF-12).; type: functional
# HT-1080 = test: cytotoxicity in HT1080 fibrosarcoma cells, cell-based, fluorescence readout (AID 620); type: functional; settings: Homo sapiens
# [4] = biological target: T1, Oxysterols receptor LXR-beta; test: LXR agonists, Gal4 luciferase reporter, dose response, counter-screen for ssDAF-12 agonist project, cell-based, luminescence, HEK293, S. stercoralis campaign (AID 720737); type: functional; settings: read-out: IC50 (the source's name)
# [5] = biological target: T2, Histone-lysine N-methyltransferase NSD2 (Homo sapiens, UniProt O96028); type: biochemical
# T2 sequence (O96028 whole entry): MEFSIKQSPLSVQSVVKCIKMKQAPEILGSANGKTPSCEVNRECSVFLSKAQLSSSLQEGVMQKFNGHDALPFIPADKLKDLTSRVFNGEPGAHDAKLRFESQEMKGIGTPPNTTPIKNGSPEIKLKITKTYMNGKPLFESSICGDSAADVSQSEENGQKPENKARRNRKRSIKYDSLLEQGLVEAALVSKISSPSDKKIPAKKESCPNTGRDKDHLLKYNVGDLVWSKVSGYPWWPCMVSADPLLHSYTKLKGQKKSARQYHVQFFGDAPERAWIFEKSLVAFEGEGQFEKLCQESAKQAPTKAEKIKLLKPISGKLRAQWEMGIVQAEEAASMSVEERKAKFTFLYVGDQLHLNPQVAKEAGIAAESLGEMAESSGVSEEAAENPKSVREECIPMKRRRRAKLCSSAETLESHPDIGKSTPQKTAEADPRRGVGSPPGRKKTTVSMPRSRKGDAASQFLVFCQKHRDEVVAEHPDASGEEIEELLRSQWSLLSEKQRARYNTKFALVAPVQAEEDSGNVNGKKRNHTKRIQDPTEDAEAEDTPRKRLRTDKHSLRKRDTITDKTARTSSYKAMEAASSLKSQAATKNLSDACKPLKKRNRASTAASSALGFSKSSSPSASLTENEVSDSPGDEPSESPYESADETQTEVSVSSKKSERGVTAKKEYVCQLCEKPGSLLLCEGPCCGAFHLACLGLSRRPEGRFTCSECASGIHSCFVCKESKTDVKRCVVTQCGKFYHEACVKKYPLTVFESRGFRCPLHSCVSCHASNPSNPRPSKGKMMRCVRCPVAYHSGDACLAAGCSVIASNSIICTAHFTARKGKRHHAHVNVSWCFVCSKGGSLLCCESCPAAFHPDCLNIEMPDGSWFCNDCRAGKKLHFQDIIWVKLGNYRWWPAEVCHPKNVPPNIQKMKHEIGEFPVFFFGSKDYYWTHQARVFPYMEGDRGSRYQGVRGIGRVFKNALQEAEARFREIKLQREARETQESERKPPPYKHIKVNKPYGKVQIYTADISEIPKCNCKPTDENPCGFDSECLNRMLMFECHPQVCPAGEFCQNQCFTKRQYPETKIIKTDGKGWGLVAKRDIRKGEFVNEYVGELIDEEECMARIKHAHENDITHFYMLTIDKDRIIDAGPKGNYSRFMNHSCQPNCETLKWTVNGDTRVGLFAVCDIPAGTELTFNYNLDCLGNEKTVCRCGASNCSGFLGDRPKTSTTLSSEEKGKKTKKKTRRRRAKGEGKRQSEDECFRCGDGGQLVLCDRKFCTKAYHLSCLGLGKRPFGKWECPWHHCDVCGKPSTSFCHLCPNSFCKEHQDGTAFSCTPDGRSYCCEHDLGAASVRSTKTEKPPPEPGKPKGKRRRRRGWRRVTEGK
# Protein Tat = Protein Tat (Human immunodeficiency virus type 1 group M subtype B (isolate HXB2)(HIV-1), UniProt P04608); type: functional;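 also: tat binding to TAR RNA read out by fluorescence polarization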
# Sequence of Protein Tat (P04608 whole entry): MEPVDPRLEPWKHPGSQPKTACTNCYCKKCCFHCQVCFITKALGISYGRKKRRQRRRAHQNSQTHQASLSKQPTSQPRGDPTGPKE
# Protein RecA = biological target: T3, Protein RecA (Mycobacterium tuberculosis, UniProt P9WHJ3); test: Fluorescence Cell-Free Homogeneous Dose Retest to Identify Inhibitors of RecA-Intein Splicing Activity. [Related pubchem assays (depositor defined):AID2097, AID2223, AID489010, AID492950]; type: functional
# T3 sequence (P9WHJ3 whole entry): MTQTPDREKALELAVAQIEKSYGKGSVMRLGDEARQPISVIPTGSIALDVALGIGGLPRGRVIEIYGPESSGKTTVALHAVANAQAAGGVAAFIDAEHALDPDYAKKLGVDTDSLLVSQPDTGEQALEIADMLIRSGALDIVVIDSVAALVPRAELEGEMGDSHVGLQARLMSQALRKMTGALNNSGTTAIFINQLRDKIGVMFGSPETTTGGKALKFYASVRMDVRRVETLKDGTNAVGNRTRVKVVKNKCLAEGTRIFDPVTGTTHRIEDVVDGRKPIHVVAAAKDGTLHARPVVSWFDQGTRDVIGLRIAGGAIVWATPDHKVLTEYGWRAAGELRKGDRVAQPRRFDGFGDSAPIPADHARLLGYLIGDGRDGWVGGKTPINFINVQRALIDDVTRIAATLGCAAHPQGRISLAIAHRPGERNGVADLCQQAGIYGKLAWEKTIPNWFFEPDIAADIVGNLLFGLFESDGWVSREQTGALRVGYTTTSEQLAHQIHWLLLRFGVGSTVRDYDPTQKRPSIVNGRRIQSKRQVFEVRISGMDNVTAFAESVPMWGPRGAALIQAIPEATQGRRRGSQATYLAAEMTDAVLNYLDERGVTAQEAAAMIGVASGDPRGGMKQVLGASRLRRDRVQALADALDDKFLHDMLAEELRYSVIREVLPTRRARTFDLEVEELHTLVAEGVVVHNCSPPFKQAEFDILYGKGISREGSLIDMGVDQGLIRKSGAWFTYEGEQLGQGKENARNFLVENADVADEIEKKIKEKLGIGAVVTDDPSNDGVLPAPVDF
# [6] = biological target: Glucose-6-phosphate 1-dehydrogenase (Homo sapiens, UniProt P11413); test: human G6PD enzyme inhibitors, dose response, selectivity assay for P. falciparum G6PD inhibitor project, biochemical, fluorescence (AID 504792); type: functional
# Sequence of Glucose-6-phosphate 1-dehydrogenase (P11413 whole entry): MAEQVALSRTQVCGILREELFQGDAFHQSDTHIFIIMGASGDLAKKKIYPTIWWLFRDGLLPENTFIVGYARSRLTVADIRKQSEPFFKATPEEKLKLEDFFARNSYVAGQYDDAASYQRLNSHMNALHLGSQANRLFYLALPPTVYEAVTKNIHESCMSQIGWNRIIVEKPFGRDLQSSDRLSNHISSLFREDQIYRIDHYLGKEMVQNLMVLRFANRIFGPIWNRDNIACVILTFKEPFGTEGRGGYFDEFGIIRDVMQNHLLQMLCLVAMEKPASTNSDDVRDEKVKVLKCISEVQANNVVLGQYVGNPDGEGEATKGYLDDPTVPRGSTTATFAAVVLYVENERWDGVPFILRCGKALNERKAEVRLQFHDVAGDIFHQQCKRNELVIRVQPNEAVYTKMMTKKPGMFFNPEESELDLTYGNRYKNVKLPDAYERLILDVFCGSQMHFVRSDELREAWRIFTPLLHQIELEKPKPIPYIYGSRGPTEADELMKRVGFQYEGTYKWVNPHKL
# [7] = biological target: Eukaryotic translation initiation factor 4E (Mus musculus, UniProt P63073); test: eIF4E–eIF4G protein interaction inhibitors, dose response, biochemical, TR-FRET (AID 855); type: functional;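 also: potency for disrupting eIF4E binding to eIF4GI seen as loss of FRET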
# Sequence of Eukaryotic translation initiation factor 4E (P63073 whole entry): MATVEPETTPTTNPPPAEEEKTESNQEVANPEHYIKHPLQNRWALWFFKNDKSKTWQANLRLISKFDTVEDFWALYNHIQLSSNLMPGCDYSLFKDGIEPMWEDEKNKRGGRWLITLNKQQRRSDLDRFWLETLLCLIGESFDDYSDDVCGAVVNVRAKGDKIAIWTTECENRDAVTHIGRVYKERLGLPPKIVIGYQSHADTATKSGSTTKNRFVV
# Hexokinase HKDC1 = biological target: T4, Hexokinase HKDC1 (Homo sapiens, UniProt Q2TB90); test: HKDC1 hexokinase inhibitors, dose response, biochemical, W721R variant (AID 504729); type: functional
# T4 sequence (Q2TB90 whole entry): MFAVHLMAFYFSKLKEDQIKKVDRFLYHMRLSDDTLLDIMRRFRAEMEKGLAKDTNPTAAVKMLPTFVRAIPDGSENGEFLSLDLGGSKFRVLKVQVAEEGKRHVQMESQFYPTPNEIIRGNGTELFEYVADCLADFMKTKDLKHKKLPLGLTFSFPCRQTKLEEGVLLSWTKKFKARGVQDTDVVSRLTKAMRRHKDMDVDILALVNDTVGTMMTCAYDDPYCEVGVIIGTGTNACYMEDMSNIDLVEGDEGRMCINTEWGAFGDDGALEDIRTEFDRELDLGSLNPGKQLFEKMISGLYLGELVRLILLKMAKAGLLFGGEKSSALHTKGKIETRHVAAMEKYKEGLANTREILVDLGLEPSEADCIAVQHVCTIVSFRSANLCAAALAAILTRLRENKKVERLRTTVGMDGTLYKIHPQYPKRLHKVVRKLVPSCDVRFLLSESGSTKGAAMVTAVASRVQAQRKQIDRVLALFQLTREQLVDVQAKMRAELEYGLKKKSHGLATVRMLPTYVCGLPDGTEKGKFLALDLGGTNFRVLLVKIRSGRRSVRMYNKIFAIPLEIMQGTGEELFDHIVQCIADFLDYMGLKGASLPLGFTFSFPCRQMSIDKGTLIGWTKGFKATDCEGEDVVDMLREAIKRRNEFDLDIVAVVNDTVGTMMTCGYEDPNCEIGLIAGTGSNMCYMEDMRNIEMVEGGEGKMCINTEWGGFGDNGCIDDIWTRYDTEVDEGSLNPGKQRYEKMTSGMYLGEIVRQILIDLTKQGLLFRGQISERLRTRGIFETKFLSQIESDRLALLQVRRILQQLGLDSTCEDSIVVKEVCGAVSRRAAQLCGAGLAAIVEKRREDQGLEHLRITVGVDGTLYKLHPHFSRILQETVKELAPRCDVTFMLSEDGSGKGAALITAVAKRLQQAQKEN
# [8] = biological target: T5, E3 ubiquitin-protein ligase XIAP (Homo sapiens, UniProt P98170); test: XIAP antagonists, biochemical, IAP family, fluorescence polarization (AID 1018); type: functional
# T5 sequence (P98170 whole entry): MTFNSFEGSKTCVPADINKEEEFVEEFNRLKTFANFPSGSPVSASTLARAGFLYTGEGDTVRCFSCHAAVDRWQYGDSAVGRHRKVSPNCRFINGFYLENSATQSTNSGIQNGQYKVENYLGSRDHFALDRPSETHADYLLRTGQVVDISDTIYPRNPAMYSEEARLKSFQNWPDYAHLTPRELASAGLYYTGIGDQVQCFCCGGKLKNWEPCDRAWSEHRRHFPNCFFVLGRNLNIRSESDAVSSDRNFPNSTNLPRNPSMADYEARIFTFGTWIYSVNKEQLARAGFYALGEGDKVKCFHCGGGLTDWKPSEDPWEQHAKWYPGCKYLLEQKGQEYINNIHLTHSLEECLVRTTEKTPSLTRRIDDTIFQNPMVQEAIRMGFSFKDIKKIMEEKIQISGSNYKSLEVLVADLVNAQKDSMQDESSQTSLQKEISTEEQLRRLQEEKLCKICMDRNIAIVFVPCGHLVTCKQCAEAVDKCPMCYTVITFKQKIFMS
# [9] = biological target: T6, Replicative DNA helicase DnaB (Mycobacterium tuberculosis, UniProt P9WMR3); test: DnaB intein splicing inhibitors, dose response, biochemical, cell-free fluorescence (AID 449749); type: functional
# T6 sequence (P9WMR3 whole entry): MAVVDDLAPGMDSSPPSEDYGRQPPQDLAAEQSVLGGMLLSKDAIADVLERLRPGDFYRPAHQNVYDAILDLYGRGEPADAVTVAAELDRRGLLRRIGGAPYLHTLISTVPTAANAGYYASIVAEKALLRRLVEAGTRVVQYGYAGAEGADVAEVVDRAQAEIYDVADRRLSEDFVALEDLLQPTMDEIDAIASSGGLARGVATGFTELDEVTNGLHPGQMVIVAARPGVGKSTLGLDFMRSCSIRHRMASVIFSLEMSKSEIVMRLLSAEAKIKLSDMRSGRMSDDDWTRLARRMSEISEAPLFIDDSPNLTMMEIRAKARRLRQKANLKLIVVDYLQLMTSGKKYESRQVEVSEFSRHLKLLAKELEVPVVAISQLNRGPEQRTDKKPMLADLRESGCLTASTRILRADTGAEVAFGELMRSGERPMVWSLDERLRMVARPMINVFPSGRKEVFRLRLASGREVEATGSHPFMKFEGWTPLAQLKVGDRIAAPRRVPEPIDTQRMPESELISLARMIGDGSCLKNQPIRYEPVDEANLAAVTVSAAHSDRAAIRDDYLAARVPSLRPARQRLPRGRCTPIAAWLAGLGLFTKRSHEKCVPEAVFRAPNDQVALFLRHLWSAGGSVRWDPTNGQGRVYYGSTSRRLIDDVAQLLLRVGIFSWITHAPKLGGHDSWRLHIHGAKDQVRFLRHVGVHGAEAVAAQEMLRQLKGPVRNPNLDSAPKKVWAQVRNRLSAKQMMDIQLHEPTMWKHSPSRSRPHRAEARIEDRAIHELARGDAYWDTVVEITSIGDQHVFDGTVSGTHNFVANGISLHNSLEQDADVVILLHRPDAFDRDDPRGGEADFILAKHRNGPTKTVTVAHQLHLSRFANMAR
# Genome polyprotein = Genome polyprotein (dengue virus type 2, UniProt P29990); test: Dengue-2 NS5 methyltransferase inhibitors, primary screen, biochemical, confirmation dose response (AID 588689); type: functional
# Sequence of Genome polyprotein (P29990 2492-3391 limits assumed): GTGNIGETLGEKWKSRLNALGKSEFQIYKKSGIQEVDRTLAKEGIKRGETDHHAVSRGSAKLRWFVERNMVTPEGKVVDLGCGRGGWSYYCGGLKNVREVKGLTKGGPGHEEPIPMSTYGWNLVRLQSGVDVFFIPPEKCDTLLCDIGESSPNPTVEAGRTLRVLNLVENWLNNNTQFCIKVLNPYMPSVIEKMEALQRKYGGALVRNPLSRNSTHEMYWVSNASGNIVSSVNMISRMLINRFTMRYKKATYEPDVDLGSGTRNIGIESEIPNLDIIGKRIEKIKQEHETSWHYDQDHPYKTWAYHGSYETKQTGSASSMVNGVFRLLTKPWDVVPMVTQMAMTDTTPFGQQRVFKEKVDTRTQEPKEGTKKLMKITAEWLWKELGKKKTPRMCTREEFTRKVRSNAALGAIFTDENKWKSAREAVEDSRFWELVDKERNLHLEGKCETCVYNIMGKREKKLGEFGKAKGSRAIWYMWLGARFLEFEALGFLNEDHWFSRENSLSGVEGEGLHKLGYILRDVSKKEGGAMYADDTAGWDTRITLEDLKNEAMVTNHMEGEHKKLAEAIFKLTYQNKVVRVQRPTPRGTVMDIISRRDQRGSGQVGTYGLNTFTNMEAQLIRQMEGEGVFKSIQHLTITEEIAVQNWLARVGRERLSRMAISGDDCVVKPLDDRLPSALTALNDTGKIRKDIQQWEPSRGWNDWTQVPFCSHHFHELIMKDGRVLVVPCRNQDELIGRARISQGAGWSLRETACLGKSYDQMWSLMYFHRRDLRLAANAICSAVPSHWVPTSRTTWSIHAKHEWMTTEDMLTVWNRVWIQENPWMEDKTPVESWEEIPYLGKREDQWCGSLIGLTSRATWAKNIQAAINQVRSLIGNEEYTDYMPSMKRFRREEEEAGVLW
# [10] = biological target: T5, E3 ubiquitin-protein ligase XIAP; test: Counter Screen using XIAP-Bir3 for Chemical Antagonists of Bir1/2 domains of IAP-family anti-apoptotic proteins. [Related pubchem assays (depositor defined):AID1018, AID1449, AID1514, AID1638, AID1749, AID1750, AID488957, AID488963]
# [11] = HepG2 cell cytotoxicity, dose response, cytotoxicity control, cherry-picked samples (AID 1159577); type: functional, cell-based
# [12] = HepG2 cell cytotoxicity, dose response, cytotoxicity control, plate reader, dry powder samples (AID 1159569); type: functional, cell-based;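 also: inhibitor potency with signal falling toward the positive control level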
# [13] = P. falciparum 3D7-ScDHODH growth inhibitors, dose response, SYBR Green, dry powder samples (AID 1159570); type: functional, cell-based;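 also: parasite growth measured after 72 hours of compound exposure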
# [14] = P. falciparum Dd2 growth inhibitors, dose response, SYBR Green, dry powder samples (AID 1159566); type: functional, cell-based;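 also: potency for growth inhibition with lower SYBR green DNA signal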
# [15] = P. falciparum ATP4 D1247Y mutant growth inhibitors, dose response, NITD609-resistant line, SYBR Green, dry powder (AID 1159571); type: functional, cell-based;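 also: parasites synchronized at ring stage by sorbitol before testing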
# [16] = P. falciparum Dd2 growth inhibitors, dose response, SYBR Green, cherry-picked samples (AID 1159567); type: functional, cell-based
# Sequence of Luciferin 4-monooxygenase (P08659 whole entry, the tested form may be a part): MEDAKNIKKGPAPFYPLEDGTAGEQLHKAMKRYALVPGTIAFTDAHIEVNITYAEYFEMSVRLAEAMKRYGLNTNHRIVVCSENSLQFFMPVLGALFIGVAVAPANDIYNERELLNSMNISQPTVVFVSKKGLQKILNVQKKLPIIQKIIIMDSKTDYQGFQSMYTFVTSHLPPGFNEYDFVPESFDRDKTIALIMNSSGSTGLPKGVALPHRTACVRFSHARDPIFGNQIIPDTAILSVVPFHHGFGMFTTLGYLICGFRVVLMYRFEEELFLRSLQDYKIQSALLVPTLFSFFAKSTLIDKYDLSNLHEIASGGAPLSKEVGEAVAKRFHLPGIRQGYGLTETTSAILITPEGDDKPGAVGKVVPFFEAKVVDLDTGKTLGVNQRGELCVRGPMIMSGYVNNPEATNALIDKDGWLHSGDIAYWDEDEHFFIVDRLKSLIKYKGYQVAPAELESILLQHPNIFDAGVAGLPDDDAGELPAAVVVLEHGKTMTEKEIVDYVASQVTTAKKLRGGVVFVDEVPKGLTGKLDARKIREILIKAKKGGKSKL
structure (smiles),measurement,setting,value
CCc1ccc2oc(-c3cccc(N)c3)nc2c1,EC50,[1],0.37 µM (active)
same,EC50,[2],> 67.6 µM (inactive)
same,IC50,[3],> 67.5 µM (inactive)
same,EC50,HT-1080,> 50 µM (not active)
same,EC50,[4],> 67.5 µM (inactive)
Cc1ccc(C(=O)NC(=S)c2c(C)cc3ccccn23)cc1,IC50,[3],> 67.5 µM (inactive)
same,EC50,[4],> 67.5 µM (inactive)
same,AC50,[5],11 µM (active)
CCCOC(=O)Nc1sc2c(c1C(=O)OCC)CCC2,IC50,Protein Tat,> 100 µM (active)
Oc1nc2ccccc2n2c(-c3ccccc3)nnc12,EC50,Protein RecA,12.8 µM (active)
same,IC50,[6],41.6 µM (inactive)
same,IC50,[7],34.4 µM (inactive)
same,IC50,Hexokinase HKDC1,7.52 µM (active)
same,IC50,[8],> 100 µM (not active)
same,AC50,[9],> 380 µM (inactive)
same,IC50,Genome polyprotein,8.26 µM (active)
same,IC50,Protein Tat,> 100 µM (active)
same,IC50,[10],> 100 µM (inactive)
COc1ccccc1C#Cc1ccc([C@@H]2[C@@H](C#N)N(C(=O)C3CCCC3)[C@H]2CO)cc1,AC50,[11],> 39 µM (inactive)
same,AC50,[12],25.2 µM (active)
same,AC50,[13],1.92 µM (active)
same,AC50,[14],1.22 µM (active)
same,AC50,[15],1.39 µM (active)
same,AC50,[16],2.9 µM (active)
